Where a SMILES comes first, the peptide text is derived from it.
Molecular target: HLA A*3001 (Homo sapiens, UniProt P04439, D140H/D185E/E176W/F33S/G80R/H175R/K168Q/R138E/R41S)
Assay: biochemical
Type: binding

Chain of HLA A*3001 (P04439 25-365 limits assumed, stated change not applied): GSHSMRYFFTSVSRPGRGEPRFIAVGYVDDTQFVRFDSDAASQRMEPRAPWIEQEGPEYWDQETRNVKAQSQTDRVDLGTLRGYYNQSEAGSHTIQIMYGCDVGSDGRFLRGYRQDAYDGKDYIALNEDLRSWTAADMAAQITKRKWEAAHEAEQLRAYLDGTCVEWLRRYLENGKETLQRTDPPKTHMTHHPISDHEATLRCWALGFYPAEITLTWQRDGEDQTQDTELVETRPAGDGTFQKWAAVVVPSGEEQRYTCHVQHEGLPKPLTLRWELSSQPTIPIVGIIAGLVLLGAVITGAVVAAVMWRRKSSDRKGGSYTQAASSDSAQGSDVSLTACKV

| SMILES | IC50 |
| --- | --- |
| CC[C@H](C)[C@H](NC(=O)CNC(=O)[C@H](CC(C)C)NC(=O)[C@@H]1CCCN1C(=O)CNC(=O)[C@H](CCCNC(=N)N)NC(=O)[C@@H](NC(=O)[C@@H](N)CCCNC(=N)N)[C@@H](C)O)C(=O)N[C@@H](CC(C)C)C(=O)O [3102.0040] (H-RTRGPLGIL-OH) | 0.086 nM |
| CC[C@H](C)[C@H](NC(=O)[C@H](CCCCN)NC(=O)[C@@H](NC(=O)[C@H](CO)NC(=O)[C@H](CCC(N)=O)NC(=O)[C@H](CC(=O)O)NC(=O)[C@H](CCCNC(=N)N)NC(=O)[C@H](CC(C)C)NC(=O)[C@@H](N)Cc1c[nH]cn1)[C@@H](C)CC)C(=O)O [3102.0041] (H-HLRDQSIKI-OH) | 15 nM |
| C[C@@H](O)[C@H](NC(=O)[C@H](CO)NC(=O)CNC(=O)[C@H](CCCNC(=N)N)NC(=O)[C@H](CC(N)=O)NC(=O)CN)C(=O)N[C@@H](CO)C(=O)N[C@@H](Cc1ccccc1)C(=O)N[C@@H](CCCCN)C(=O)O [3102.0043] (H-GNRGSTSFK-OH) | 2 nM |
| CC[C@H](C)[C@H](NC(=O)[C@H](C)NC(=O)[C@H](Cc1c[nH]cn1)NC(=O)[C@H](CO)NC(=O)[C@@H](N)CCCCN)C(=O)N[C@@H](Cc1ccc(O)cc1)C(=O)N[C@@H](Cc1c[nH]c2ccccc12)C(=O)N[C@@H](CC(=O)O)C(=O)N[C@@H](CCCCN)C(=O)O [3102.0046] (H-KSHAIYWDK-OH) | 11 nM |
| C[C@@H](O)[C@H](NC(=O)[C@@H](N)CCCNC(=N)N)C(=O)N[C@@H](Cc1c[nH]cn1)C(=O)N[C@@H](Cc1ccccc1)C(=O)N[C@@H](CO)C(=O)N[C@@H](CCC(N)=O)C(=O)N1CCC[C@H]1C(=O)N[C@@H](CO)C(=O)NCC(=O)O [3102.0048] (H-RTHFSQPSG-OH) | 15 nM |
| CC(C)C[C@H](NC(=O)[C@H](Cc1ccc(O)cc1)NC(=O)[C@H](CC(C)C)NC(=O)[C@H](Cc1ccccc1)NC(=O)[C@H](C)NC(=O)[C@H](Cc1ccccc1)NC(=O)[C@H](CCCNC(=N)N)NC(=O)[C@H](Cc1ccc(O)cc1)NC(=O)[C@@H](N)CCCNC(=N)N)C(=O)O [3102.0049] (H-RYRFAFLYL-OH) | 0.17 nM |
| CC[C@H](C)[C@H](NC(=O)[C@H](Cc1c[nH]cn1)NC(=O)[C@H](Cc1ccccc1)NC(=O)[C@H](CO)NC(=O)[C@@H](NC(=O)[C@@H](N)CCCCN)[C@@H](C)O)C(=O)N[C@H](C(=O)N[C@@H](Cc1ccccc1)C(=O)N[C@@H](CC(C)C)C(=O)O)[C@@H](C)CC [3102.0050] (H-KTSFHIIFL-OH) | 25 nM |
| CC[C@H](C)[C@H](NC(=O)[C@H](CC(N)=O)NC(=O)[C@H](CC(=O)O)NC(=O)[C@H](CO)NC(=O)[C@H](CCCNC(=N)N)NC(=O)[C@@H](NC(=O)[C@@H](N)CCCCN)[C@@H](C)CC)C(=O)N[C@@H](CCCCN)C(=O)N[C@@H](CCCCN)C(=O)O [3102.0051] (H-KIRSDNIKK-OH) | 12 nM |
| CC[C@H](C)[C@H](NC(=O)[C@H](Cc1ccc(O)cc1)NC(=O)[C@@H](NC(=O)[C@H](CCCCN)NC(=O)[C@H](CCCCN)NC(=O)[C@H](Cc1ccccc1)NC(=O)[C@@H](N)CCCNC(=N)N)C(C)C)C(=O)N[C@@H](CC(C)C)C(=O)N[C@H](C(=O)O)C(C)C [3102.0055] (H-RFKKVYILV-OH) | 13 nM |
| CC[C@H](C)[C@H](NC(=O)[C@H](CCCNC(=N)N)NC(=O)[C@H](CC(N)=O)NC(=O)[C@@H](NC(=O)[C@H](CCC(=O)O)NC(=O)[C@H](CCCCN)NC(=O)[C@@H](NC(=O)[C@@H](N)CCCCN)[C@@H](C)O)[C@@H](C)O)C(=O)N[C@@H](Cc1ccc(O)cc1)C(=O)O [3102.0056] (H-KTKETNRIY-OH) | 11 nM |
| CC[C@H](C)[C@H](NC(=O)[C@H](CCCNC(=N)N)NC(=O)CNC(=O)[C@@H](N)CCCCN)C(=O)N[C@@H](CO)C(=O)N[C@@H](Cc1ccc(O)cc1)C(=O)N[C@@H](Cc1ccc(O)cc1)C(=O)N[C@@H](CCC(=O)O)C(=O)N[C@@H](CCSC)C(=O)O [3102.0058] (H-KGRISYYEM-OH) | 14 nM |
| CSCC[C@H](NC(=O)[C@H](CC(N)=O)NC(=O)[C@H](CCCNC(=N)N)NC(=O)[C@@H](NC(=O)[C@@H](N)CCCNC(=N)N)[C@@H](C)O)C(=O)N[C@@H](Cc1ccccc1)C(=O)N[C@@H](CCCNC(=N)N)C(=O)N[C@@H](CCCCN)C(=O)N[C@@H](CCCCN)C(=O)O [3102.0060] (H-RTRNMFRKK-OH) | 0.089 nM |
| CC[C@H](C)[C@H](NC(=O)[C@H](C)NC(=O)[C@H](CO)NC(=O)[C@@H](NC(=O)[C@H](CO)NC(=O)[C@@H](NC(=O)[C@@H](N)CCCNC(=N)N)C(C)C)C(C)C)C(=O)N[C@@H](CC(C)C)C(=O)N[C@@H](CC(C)C)C(=O)O [3102.0061] (H-RVSVSAILL-OH) | 15 nM |
| CSCC[C@H](NC(=O)[C@H](CC(C)C)NC(=O)[C@@H](NC(=O)[C@@H](N)Cc1c[nH]cn1)C(C)C)C(=O)N[C@@H](Cc1c[nH]cn1)C(=O)N[C@@H](CO)C(=O)N1CCC[C@H]1C(=O)N[C@@H](CC(C)C)C(=O)N[C@H](C(=O)O)C(C)C [3102.0062] (H-HVLMHSPLV-OH) | 30 nM |
| CC[C@H](C)[C@H](N)C(=O)N[C@@H](CO)C(=O)N[C@@H](CCCNC(=N)N)C(=O)N[C@@H](CO)C(=O)N[C@@H](CCCNC(=N)N)C(=O)N[C@@H](CCCNC(=N)N)C(=O)N[C@@H](CC(C)C)C(=O)N[C@@H](Cc1ccccc1)C(=O)N[C@@H](C)C(=O)O [3102.0065] (H-ISRSRRLFA-OH) | 2.2 nM |
| CC[C@H](C)[C@H](NC(=O)[C@@H](NC(=O)[C@@H](NC(=O)[C@H](CC(=O)O)NC(=O)[C@H](CCCCN)NC(=O)[C@@H](NC(=O)[C@H](C)N)C(C)C)C(C)C)[C@@H](C)O)C(=O)N[C@H](C(=O)N[C@@H](CCCCN)C(=O)O)[C@@H](C)O [3102.0067] (H-AVKDVTITK-OH) | 2.2 nM |
| CC(C)[C@H](NC(=O)[C@@H](N)Cc1c[nH]cn1)C(=O)N[C@@H](Cc1ccc(O)cc1)C(=O)N[C@@H](CC(=O)O)C(=O)N[C@@H](Cc1ccccc1)C(=O)N[C@@H](CCC(=O)O)C(=O)N1CCC[C@H]1C(=O)N[C@@H](Cc1ccc(O)cc1)C(=O)N[C@@H](Cc1ccc(O)cc1)C(=O)O [3102.0068] (H-HVYDFEPYY-OH) | 27 nM |
| CC[C@H](C)[C@H](NC(=O)[C@H](CCCNC(=N)N)NC(=O)[C@H](CCC(N)=O)NC(=O)[C@@H](N)CCSC)C(=O)N[C@H](C(=O)N[C@@H](CO)C(=O)N[C@@H](CC(C)C)C(=O)N[C@@H](CO)C(=O)N[C@H](C(=O)O)C(C)C)[C@@H](C)CC [3102.0069] (H-MQRIISLSV-OH) | 8.8 nM |
| CC(C)[C@H](NC(=O)[C@H](CO)NC(=O)[C@@H]1CCCN1C(=O)[C@H](CO)NC(=O)[C@H](C)NC(=O)[C@H](Cc1ccc(O)cc1)NC(=O)[C@H](Cc1ccccc1)NC(=O)CNC(=O)[C@@H](N)CCCCN)C(=O)O [3102.0070] (H-KGFYASPSV-OH) | 2.7 nM |
| CC(C)[C@H](NC(=O)[C@H](CCC(N)=O)NC(=O)[C@@H](NC(=O)[C@H](CCCNC(=N)N)NC(=O)[C@H](CCC(=O)O)NC(=O)[C@@H](NC(=O)[C@H](CCCNC(=N)N)NC(=O)[C@H](CO)NC(=O)[C@@H](N)CCCCN)C(C)C)C(C)C)C(=O)O [3102.0075] (H-KSRVERVQV-OH) | 11 nM |
| CC[C@H](C)[C@H](NC(=O)[C@H](CC(N)=O)NC(=O)[C@@H](NC(=O)[C@@H](NC(=O)[C@H](Cc1ccccc1)NC(=O)[C@@H](NC(=O)[C@H](C)N)[C@@H](C)O)[C@@H](C)O)C(C)C)C(=O)N[C@@H](Cc1ccccc1)C(=O)N[C@@H](CCCCN)C(=O)O [3102.0081] (H-ATFTVNIFK-OH) | 3.1 nM |
| CC(C)C[C@H](NC(=O)[C@H](CCCNC(=N)N)NC(=O)[C@@H](NC(=O)[C@@H](N)CCCNC(=N)N)C(C)C)C(=O)N[C@@H](CCCNC(=N)N)C(=O)N[C@@H](Cc1ccc(O)cc1)C(=O)N[C@@H](CCCNC(=N)N)C(=O)N[C@@H](CO)C(=O)NCC(=O)O [3102.0082] (H-RVRLRYRSG-OH) | 13 nM |
| CC[C@H](C)[C@H](NC(=O)[C@@H](N)CCCNC(=N)N)C(=O)N[C@@H](CCCNC(=N)N)C(=O)N[C@@H](Cc1ccccc1)C(=O)N[C@@H](Cc1ccccc1)C(=O)N[C@@H](Cc1ccc(O)cc1)C(=O)N[C@@H](CCCNC(=N)N)C(=O)N[C@@H](CCCCN)C(=O)N[C@@H](CCCCN)C(=O)O [3102.0083] (H-RIRFFYRKK-OH) | 0.17 nM |
| CC[C@H](C)[C@H](NC(=O)[C@H](CCSC)NC(=O)[C@H](CC(C)C)NC(=O)[C@@H]1CCCN1C(=O)[C@H](CCCNC(=N)N)NC(=O)[C@H](Cc1ccccc1)NC(=O)[C@@H](N)CCCCN)C(=O)N[C@@H](Cc1ccccc1)C(=O)N[C@@H](CCSC)C(=O)O [3102.0084] (H-KFRPLMIFM-OH) | 1.8 nM |
| CC[C@H](C)[C@H](NC(=O)[C@@H](NC(=O)[C@H](Cc1c[nH]c2ccccc12)NC(=O)[C@H](Cc1ccccc1)NC(=O)CNC(=O)[C@H](CO)NC(=O)[C@H](CCCNC(=N)N)NC(=O)[C@H](Cc1ccc(O)cc1)NC(=O)[C@@H](N)CCCNC(=N)N)[C@@H](C)CC)C(=O)O [3102.0085] (H-RYRSGFWII-OH) | 8.7 nM |
| CC[C@H](C)[C@H](NC(=O)[C@H](Cc1ccccc1)NC(=O)[C@H](Cc1ccccc1)NC(=O)[C@H](CO)NC(=O)[C@H](CC(N)=O)NC(=O)[C@H](CO)NC(=O)[C@H](CC(C)C)NC(=O)[C@@H](N)Cc1c[nH]cn1)C(=O)N[C@@H](CCCCN)C(=O)O [3102.0086] (H-HLSNSFFIK-OH) | 17 nM |
| CC[C@H](C)[C@H](NC(=O)[C@@H](NC(=O)[C@H](CC(N)=O)NC(=O)[C@H](CCCCN)NC(=O)[C@H](CO)NC(=O)[C@@H](N)CCCNC(=N)N)[C@@H](C)O)C(=O)N[C@H](C(=O)N[C@H](C(=O)N[C@@H](C)C(=O)O)[C@@H](C)CC)[C@@H](C)CC [3102.0089] (H-RSKNTIIIA-OH) | 0.16 nM |
| CSCC[C@H](N)C(=O)N[C@@H](CCC(N)=O)C(=O)N[C@@H](CCCCN)C(=O)N[C@@H](CS)C(=O)N[C@@H](Cc1ccc(O)cc1)C(=O)N[C@@H](Cc1ccccc1)C(=O)N[C@@H](CO)C(=O)N[C@@H](Cc1ccc(O)cc1)C(=O)N[C@@H](CCCCN)C(=O)O [3102.0090] (H-MQKCYFSYK-OH) | 0.53 nM |
| CC[C@H](C)[C@H](NC(=O)[C@@H](N)CCCCN)C(=O)N[C@@H](CCCCN)C(=O)N[C@@H](CO)C(=O)N[C@@H](CO)C(=O)N[C@@H](CC(N)=O)C(=O)N[C@@H](CO)C(=O)N[C@@H](CO)C(=O)N[C@@H](CCCCN)C(=O)O [3102.0091] (H-KIKSSNSSK-OH) | 15 nM |

Reference: paper PMC2248166, “Quantitative peptide binding motifs for 19 human and mouse MHC class I molecules derived using positional scanning combinatorial peptide libraries” (Immunome Research, 2008)
